Data as given in ChEMBL document CHEMBL3865783, “Synthesis and antimicrobial activity against Pseudomonas aeruginosa of macrocyclic β-hairpin peptidomimetic antibiotics containing N-methylated amino acids” (Bioorg Med Chem, 2016).

What was measured:
Pseudomonas aeruginosa = test: Inhibition of LptD in Pseudomonas aeruginosa ATCC 27853 assessed as microbial growth inhibition by microbroth dilution method
[1] = molecular target: T1, LPS-assembly protein LptD (Pseudomonas aeruginosa (strain ATCC 15692 / DSM 22644 / CIP 104116 /JCM 14847 / LMG 12228 / 1C / PRS 101 / PAO1)) (UniProt Q9I5U2); test: Inhibition of LptD in Pseudomonas aeruginosa PAO1 assessed as microbial growth inhibition by microbroth dilution method
T1 sequence (whole entry): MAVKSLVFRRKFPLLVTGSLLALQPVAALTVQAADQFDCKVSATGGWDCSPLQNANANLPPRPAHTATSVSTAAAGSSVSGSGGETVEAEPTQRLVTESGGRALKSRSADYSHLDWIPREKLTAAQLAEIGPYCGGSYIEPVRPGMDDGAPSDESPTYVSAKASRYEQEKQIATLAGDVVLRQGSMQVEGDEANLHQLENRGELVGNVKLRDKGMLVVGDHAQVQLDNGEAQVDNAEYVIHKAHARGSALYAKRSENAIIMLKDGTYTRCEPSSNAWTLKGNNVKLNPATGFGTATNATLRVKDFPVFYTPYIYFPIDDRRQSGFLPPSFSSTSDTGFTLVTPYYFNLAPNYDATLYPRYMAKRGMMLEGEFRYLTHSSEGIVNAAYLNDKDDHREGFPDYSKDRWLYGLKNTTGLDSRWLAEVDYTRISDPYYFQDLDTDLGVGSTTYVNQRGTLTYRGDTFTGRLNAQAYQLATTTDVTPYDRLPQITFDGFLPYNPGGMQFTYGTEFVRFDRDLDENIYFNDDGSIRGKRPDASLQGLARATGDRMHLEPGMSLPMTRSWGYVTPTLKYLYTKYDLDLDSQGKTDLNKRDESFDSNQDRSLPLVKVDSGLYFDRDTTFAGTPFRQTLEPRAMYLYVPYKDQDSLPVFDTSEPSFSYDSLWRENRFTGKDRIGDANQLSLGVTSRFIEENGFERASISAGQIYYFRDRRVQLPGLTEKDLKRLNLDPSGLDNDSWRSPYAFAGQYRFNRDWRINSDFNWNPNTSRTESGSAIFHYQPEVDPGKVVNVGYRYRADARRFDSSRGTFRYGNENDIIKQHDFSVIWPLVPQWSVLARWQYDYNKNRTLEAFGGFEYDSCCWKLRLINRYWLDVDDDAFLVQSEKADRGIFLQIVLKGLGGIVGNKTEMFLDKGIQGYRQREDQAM

| Structure (SMILES) | MIC (Pseudomonas aeruginosa) [µg/mL] | MIC [1] [µg/mL] |
| --- | --- | --- |
| CC(C)C[C@@H]1NC(=O)[C@H](Cc2c[nH]c3ccccc23)NC(=O)[C@H]([C@@H](C)O)NC(=O)[C@@H]2CCCN2C(=O)[C@H]2CCCN2C(=O)[C@H](CCCCN)NC(=O)[C@H](C)NC(=O)[C@H](CCN)NC(=O)[C@H](CCCN)NC(=O)[C@H](Cc2c[nH]c3ccccc23)N(C)C(=O)[C@H](CCCNC(=N)N)NC(=O)[C@@H](CCCCN)NC(=O)[C@H](CCCN)NC(=O)[C@H](CCN)NC1=O | 0.023 | 0.13 |
| CC(C)C[C@@H]1NC(=O)[C@H](Cc2c[nH]c3ccccc23)NC(=O)[C@H]([C@@H](C)O)N(C)C(=O)[C@@H]2CCCN2C(=O)[C@H]2CCCN2C(=O)[C@H](CCCCN)NC(=O)[C@H](C)NC(=O)[C@H](CCN)NC(=O)[C@H](CCCN)NC(=O)[C@H](Cc2c[nH]c3ccccc23)NC(=O)[C@H](CCCNC(=N)N)NC(=O)[C@@H](CCCCN)NC(=O)[C@H](CCCN)NC(=O)[C@H](CCN)NC1=O | 0.19 | 0.38 |
| CC(C)C[C@@H]1NC(=O)[C@H](Cc2c[nH]c3ccccc23)NC(=O)[C@H]([C@@H](C)O)NC(=O)[C@@H]2CCCN2C(=O)[C@H]2CCCN2C(=O)[C@H](CCCCN)NC(=O)[C@H](C)N(C)C(=O)[C@H](CCN)NC(=O)[C@H](CCCN)NC(=O)[C@H](Cc2c[nH]c3ccccc23)NC(=O)[C@H](CCCNC(=N)N)NC(=O)[C@@H](CCCCN)NC(=O)[C@H](CCCN)NC(=O)[C@H](CCN)NC1=O | > 64 | > 64 |
| CC(C)C[C@@H]1NC(=O)[C@H](Cc2c[nH]c3ccccc23)NC(=O)[C@H]([C@@H](C)O)NC(=O)[C@@H]2CCCN2C(=O)[C@H]2CCCN2C(=O)[C@H](CCCCN)NC(=O)[C@H](C)NC(=O)[C@H](CCN)NC(=O)[C@H](CCCN)NC(=O)[C@H](Cc2c[nH]c3ccccc23)NC(=O)[C@H](CCCNC(=N)N)NC(=O)[C@@H](CCCCN)NC(=O)[C@H](CCCN)N(C)C(=O)[C@H](CCN)NC1=O | 0.009 | 0.008 |
| CC(C)C[C@@H]1NC(=O)[C@H](Cc2c[nH]c3ccccc23)NC(=O)[C@H]([C@@H](C)O)NC(=O)[C@@H]2CCCN2C(=O)[C@H]2CCCN2C(=O)[C@H](CCCCN)NC(=O)[C@H](C)NC(=O)[C@H](CCN)NC(=O)[C@H](CCCN)NC(=O)[C@H](Cc2c[nH]c3ccccc23)NC(=O)[C@H](CCCNC(=N)N)NC(=O)[C@@H](CCCCN)NC(=O)[C@H](CCCN)NC(=O)[C@H](CCN)NC1=O | 0.008 | 0.015 |
| CC(C)C[C@@H]1NC(=O)[C@H](Cc2c[nH]c3ccccc23)NC(=O)[C@H]([C@@H](C)O)NC(=O)[C@@H]2CCCN2C(=O)[C@H]2CCCN2C(=O)[C@H](CCCCN)NC(=O)[C@H](C)NC(=O)[C@H](CCN)NC(=O)[C@H](CCCN)NC(=O)[C@H](Cc2c[nH]c3ccccc23)NC(=O)[C@H](CCCNC(=N)N)N(C)C(=O)[C@@H](CCCCN)NC(=O)[C@H](CCCN)NC(=O)[C@H](CCN)NC1=O | 0.38 | 0.75 |
| CC(C)C[C@@H]1NC(=O)[C@H](Cc2c[nH]c3ccccc23)N(C)C(=O)[C@H]([C@@H](C)O)NC(=O)[C@@H]2CCCN2C(=O)[C@H]2CCCN2C(=O)[C@H](CCCCN)NC(=O)[C@H](C)NC(=O)[C@H](CCN)NC(=O)[C@H](CCCN)NC(=O)[C@H](Cc2c[nH]c3ccccc23)NC(=O)[C@H](CCCNC(=N)N)NC(=O)[C@@H](CCCCN)NC(=O)[C@H](CCCN)NC(=O)[C@H](CCN)NC1=O | > 64 | > 64 |
| CC(C)C[C@@H]1NC(=O)[C@H](Cc2c[nH]c3ccccc23)NC(=O)[C@H]([C@@H](C)O)NC(=O)[C@@H]2CCCN2C(=O)[C@H]2CCCN2C(=O)[C@H](CCCCN)NC(=O)[C@H](C)NC(=O)[C@H](CCN)NC(=O)[C@H](CCCN)NC(=O)[C@H](Cc2c[nH]c3ccccc23)NC(=O)[C@H](CCCNC(=N)N)NC(=O)[C@@H](CCCCN)N(C)C(=O)[C@H](CCCN)NC(=O)[C@H](CCN)NC1=O | 0.012 | 0.025 |
| CC(C)C[C@@H]1NC(=O)[C@H](Cc2c[nH]c3ccccc23)NC(=O)[C@H]([C@@H](C)O)NC(=O)[C@@H]2CCCN2C(=O)[C@H]2CCCN2C(=O)[C@H](CCCCN)NC(=O)[C@H](C)NC(=O)[C@H](CCN)NC(=O)[C@H](CCCN)NC(=O)[C@H](Cc2c[nH]c3ccccc23)NC(=O)[C@H](CCCNC(=N)N)NC(=O)[C@@H](CCCCN)NC(=O)[C@H](CCCN)NC(=O)[C@H](CCN)N(C)C1=O | 0.005 | 0.009 |
| CC(C)C[C@@H]1NC(=O)[C@H](Cc2c[nH]c3ccccc23)NC(=O)[C@H]([C@@H](C)O)NC(=O)[C@@H]2CCCN2C(=O)[C@H]2CCCN2C(=O)[C@H](CCCCN)NC(=O)[C@H](C)NC(=O)[C@H](CCN)N(C)C(=O)[C@H](CCCN)NC(=O)[C@H](Cc2c[nH]c3ccccc23)NC(=O)[C@H](CCCNC(=N)N)NC(=O)[C@@H](CCCCN)NC(=O)[C@H](CCCN)NC(=O)[C@H](CCN)NC1=O | 1 | 12 |
| CC(C)C[C@@H]1NC(=O)[C@H](Cc2c[nH]c3ccccc23)NC(=O)[C@H]([C@@H](C)O)NC(=O)[C@@H]2CCCN2C(=O)[C@H]2CCCN2C(=O)[C@H](CCCCN)NC(=O)[C@H](C)NC(=O)[C@H](CCN)NC(=O)[C@H](CCCN)N(C)C(=O)[C@H](Cc2c[nH]c3ccccc23)NC(=O)[C@H](CCCNC(=N)N)NC(=O)[C@@H](CCCCN)NC(=O)[C@H](CCCN)NC(=O)[C@H](CCN)NC1=O | 12 | 16 |
| CC(C)C[C@H]1C(=O)N[C@@H](CCN)C(=O)N[C@@H](CCCN)C(=O)N[C@H](CCCCN)C(=O)N[C@@H](CCCNC(=N)N)C(=O)N[C@@H](Cc2c[nH]c3ccccc23)C(=O)N[C@@H](CCCN)C(=O)N[C@@H](CCN)C(=O)N[C@@H](C)C(=O)N[C@@H](CCCCN)C(=O)N2CCC[C@@H]2C(=O)N2CCC[C@H]2C(=O)N[C@@H]([C@@H](C)O)C(=O)N[C@@H](Cc2c[nH]c3ccccc23)C(=O)N1C | > 64 | > 64 |
| CC(C)C[C@@H]1NC(=O)[C@H](Cc2c[nH]c3ccccc23)NC(=O)[C@H]([C@@H](C)O)NC(=O)[C@@H]2CCCN2C(=O)[C@H]2CCCN2C(=O)[C@H](CCCCN)N(C)C(=O)[C@H](C)NC(=O)[C@H](CCN)NC(=O)[C@H](CCCN)NC(=O)[C@H](Cc2c[nH]c3ccccc23)NC(=O)[C@H](CCCNC(=N)N)NC(=O)[C@@H](CCCCN)NC(=O)[C@H](CCCN)NC(=O)[C@H](CCN)NC1=O | > 64 | > 64 |
